In publication PMC12596731, “Cys–Lys stapling for unprotected peptides via tunable linkers” (National Science Review, 2025):

Key:
[1] = Circular dichroism measurement of α-helicity; assay type: physicochemical; conditions: 40% TFE/H2O, 0.05 mM peptide, room temperature, path length 1 mm, 180-260 nm, average of at least 3 values
Protocol: VIII. Circular Dichroism Measurements.[22]
General Procedure for the measurement of CD spectra were mensurated at a wavelength ranging from 180 to 260 nm, with a path length of 1mm and a scanning speed of 200 nm/min at room temperature on the J-1500 (Jasco, Japan) spectropolarimeter. The lyophilized solid linear and staple peptides were dissolved in deionized water (bubbled with nitrogen for 30 minutes) to afford a 1 mM solution. The 1 mM stock solution was diluted with six different solvent systems (H2O, 5%, 10%, 20%, 30%, 40% TFE/H2O) to afford 0.05 mM solutions. The data described is the average of at least 3 values. The mean peptide ellipticity [θ] was calculated using equation (1) and plotted against […]
θ: ellipticity [mdeg], C: peptide molar concentration [M], Np: number of peptide units, l: cell path length [cm].[6]
Figure S20: The CD spectroscopy of 5y was measured in six different solvent systems Through the above data, we obviously saw that the stapled peptide 5y had the best helicity (34.7%) in 40% solution of TFE/H2O, and then we conducted CD test on the active peptide QN-16 before and after stapling.

[2] = test system: human bladder cancer cells; assay type: cell-based; conditions: 48 h
Protocol: XI. Biological Experiments
Cell Counting Kit (CCK-8) was used to evaluate the proliferation inhibition activity of the compounds, and the half inhibitory concentration IC50 value was determined by single-concentration primary screening and multi-concentration.
Fetal Bovine Serum (FBS) 04-001-1acs, Biological industries; PBS phosphate buffer (PB180327), penicillin-streptomycin sulfate double resistant mixture (100× ) […]
Leibovitz's L-15 medium (PM151010), Wuhan Punosai Life Technology Co., LTD.
CCK-8 Kit, Biosharp life sciences; Trypsin-edta Digestive Solution (05200-056), GIBCO; Cellular DMSO (D2650 -100ML), SIGMA; 96-well cell culture plate, Corning Life Sciences (Wujiang) Co., LTD. 25, 75cm2 cell culture bottle, Corning Life Sciences (Wujiang) Co., LTD. Blood cell counting plate, Shanghai Qiujing Biochemical Reagent Instrument Co., LTD. Cisplatin (D8810), Solarbio life sciences;
Instruments and equipment
Super clean workbench (sw-cj-2fd), Sujing Aetna; Microscope (nib -100), Ningbo Yongxin Optical Co., Ltd; Carbon dioxide cell incubator (MCO -18AC), Phcbi; Electric constant temperature water bath pot (HWS -24), Shanghai Yiheng Technology Co., Ltd; Multifunctional microplate reader (Multiskan MK3), Thermo; One ten-thousandth balance (MS105DU), METTLER; Centrifuge (TD4N), ChangshaYingtai Instrument Co., Ltd; Mixer (SCI-VS), Selo Czech Republic, USA.
The samples were dissolved in the cell -grade DMSO after accurately weighing to generate the 10 mM drug solution. The drug solution was further diluted to tenfold detection concentration by cell culture medium.
Standard Operation Procedure
Detection principle of cytotoxicity (CCK -8 method):
The detection principle is that the CCK-8 reagent contains WST-8, which is reduced S52 to a highly water-soluble yellow methyl product (formazan) by dehydrogenase in the cell mitochondria under the action of electron carrier 1-methoxy-5-methylphenazine dimethyl sulfate (1-methoxy PMS). The number of the nail products produced is directly proportional to the number of living cells.
(1) Inoculate cells: The cells were prepared into single cell suspension with the culture medium containing 10% fetal bovine serum, and the 96 well plates were inoculated with 90 uL cell culture medium (Adherent cell viewed 5×10^4/mL and Suspension cell viewed 9×10^4/mL) per well, then cultured at 5% CO2 and 37 ℃ for 24 hours.
(2) Add the sample solution to be tested: Add 10 µL sample solution to each well. One concentration was set for each sample during preliminary screening and three multiple holes were set for each concentration. Eight concentration gradients were set for each sample for IC50 determination and three multiple holes were set for each concentration.
The 96 well plates were cultured at 5% CO2 and 37 ℃ for 48 hours. The experiment was divided into a blank group, control group and drug group.
(3) Color development: The old culture medium and drug solution of adherent cells were sucked out, then 100 µL of CCK-8 solution (diluted ten times with the basic medium) was added and the suspension cells were directly added 10 µL of CCK-8 stock solution. Culture at 37 ℃ with 5% CO2 for 1-4 h (dark operation, real-time observation).
(4) Result detection: The absorbance was measured at 450 nm with an enzyme labeling instrument and the original data and results were recorded.
(5) The toxicity is expressed by cell inhibition, and the calculation formula is as follows:
Cell inhibition (%) = (ODControl-ODDrug) / (ODControl-ODBlank)×100%. The IC50 was calculated by the software graphpad prism 8 (version 8.0.2, from GraphPad SoftwareInc)，and the experimental results are expressed in ± SD.
6) Positive control: Cisplatin.

chymotrypsin = test: Proteolysis assay with chymotrypsin; assay type: in vitro ADME; conditions: chymotrypsin solution, 500 µL of 500 µM peptide in phosphate buffer pH 7.4 + 10 µL chymotrypsin 100 µg/mL, 37 °C, HPLC integration relative to starting peptide, read-out: peptide degraded under chymotrypsin for 1.5 h
Protocol: IX. Proteolysis assays.
500 µL of peptide TR-12 (500 µM, 2 µL DMSO was added to help solubilization) in phosphate buffer (pH 7.4) was mixed and incubated with 10 µL of the protease solution (Chymotrypsin – 100 µg/mL) at 37 ℃. At 0, 10, 20 , 40, 60, 90 minutes, aliquots of 50 µL were quenched with 50 µL of 1% TFA solution in MeCN respectively and subjected to HPLC analysis. Peptide concentrations at different time points were quantified by integration of the HPLC trace relative to the starting […]
500 µL of peptide 5o (500 µM, 2 µL DMSO was added to help solubilization) in phosphate buffer (pH 7.4) was mixed and incubated with
Table S2. Proteolytic assays of peptide TR-12 and 5o with chymotrypsin.
Time/Peak area 0 min 10 min 20 min 40 min 60 min 90 min

[3] = Serum stability study in Foetal Bovine Serum; conditions: 300 µL of 1 mg/mL peptide in deionized water + 300 µL Foetal Bovine Serum, 37 °C, CH3CN precipitation, RP-HPLC peak area of intact peptide
Protocol: The peptide of interest (300 µ L of 1 mg/mL stock solution in deionized water) was added to 300 µ L of
Foetal Bovine Serum and incubated at 37° C in an incubator. At each time point, an aliquot of 50 µ L was
drawn and an equal volume of ice-chilled CH3CN was added to the aliquot to precipitate serum proteins.
The cloudy mixture was centrifuged at 12,000 rpm for 10 min and then supernatant was removed. The
level of degradation was determined by the integration of the area under the RP-HPLC peak
corresponding to the intact peptide.
Before testing the serum stability, the standard curve (the relationship between concentration and peak
area) was established by RP-HPLC for CP-9 and TR-12 and QN-16 and 5h and 5o and 5w.
shift their retention times later.

## CC(=O)N[C@H](C(=O)N[C@@H](CO)C(=O)N[C@@H](Cc1ccccc1)C(=O)N[C@H]1CCCCNC(=O)CCC/C(=C\Cl)SSC[C@@H](C(=O)N[C@@H](CC(C)C)C(=O)N[C@@H](CC(C)C)C(=O)N[C@@H](CO)C(=O)N[C@@H](CCCNC(=N)N)C(N)=O)NC(=O)[C@H](Cc2c[nH]c3ccccc23)NC(=O)[C@H](Cc2ccc(O)cc2)NC(=O)[C@H](CCC(N)=O)NC1=O)[C@@H](C)O [Peptide 5l]
[1]
  Helicity (α-helicity by CD): 81.4%
[2]
  IC50: 14.7 µM

## CC(=O)N[C@H](C(=O)N[C@@H](CO)C(=O)N[C@@H](Cc1ccccc1)C(=O)N[C@H]1CCCCNC(=O)CCCC/C(=C\Cl)SSC[C@@H](C(=O)N[C@@H](CC(C)C)C(=O)N[C@@H](CC(C)C)C(=O)N[C@@H](CO)C(=O)N[C@@H](CCCNC(=N)N)C(N)=O)NC(=O)[C@H](Cc2c[nH]c3ccccc23)NC(=O)[C@H](Cc2ccc(O)cc2)NC(=O)[C@H](CCC(N)=O)NC1=O)[C@@H](C)O [Peptide 5o]
chymotrypsin
  metabolised at 1.5 h, 490 µM: 43%
[2]
  IC50: 8.55 µM

## CC(=O)N[C@H](C(=O)N[C@@H](CO)C(=O)N[C@@H](Cc1ccccc1)C(=O)N[C@H]1CCCCNC(=O)c2cccc(c2)OCC/C(Cl)=C\SSC[C@@H](C(=O)N[C@@H](CC(C)C)C(=O)N[C@@H](CC(C)C)C(=O)N[C@@H](CO)C(=O)N[C@@H](CCCNC(=N)N)C(N)=O)NC(=O)[C@H](Cc2c[nH]c3ccccc23)NC(=O)[C@H](Cc2ccc(O)cc2)NC(=O)[C@H](CCC(N)=O)NC1=O)[C@@H](C)O [Peptide 5q]
[2]
  IC50: 22.4 µM

## CC(=O)N[C@H](C(=O)N[C@@H](CO)C(=O)N[C@@H](Cc1ccccc1)C(=O)N[C@@H](CCCCN)C(=O)N[C@@H](CCC(N)=O)C(=O)N[C@@H](Cc1ccc(O)cc1)C(=O)N[C@@H](Cc1c[nH]c2ccccc12)C(=O)N[C@@H](CS)C(=O)N[C@@H](CC(C)C)C(=O)N[C@@H](CC(C)C)C(=O)N[C@@H](CO)C(=O)N[C@@H](CCCNC(=N)N)C(N)=O)[C@@H](C)O [TR-12]
[1]
  Helicity (α-helicity by CD): 44.7%
chymotrypsin
  metabolised at 1.5 h, 490 µM: 90%
[2]
  IC50: 16.2 µM
[3]
  time for complete degradation in bovine serum: ≤ 2 h

## Ac-CPIMEDRKP-NH2 [CP-9]
[3]
  time for complete degradation in bovine serum: ≤ 5 h

## Ac-QSQQTFCNLWRLLKQN-NH2 (also: sidechain bridge or staple (positions not given here)) [Peptide 5v, QN-16 stapled with reagent 3d]
[1]
  Helicity (α-helicity by CD): 60.8%

## Ac-QSQQTFCNLWRLLKQN-NH2 (also: sidechain bridge or staple (positions not given here)) [Peptide 5y, QN-16 stapled with reagent 3m]
[1]
  Helicity (α-helicity by CD): 34.7%

## Ac-QSQQTFCNLWRLLKQN-NH2 [QN-16]
[1]
  Helicity (α-helicity by CD): 30.3%
